Assay results published in PubChem BioAssay (NCI).
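The concentration for 50% growth inhibition is given as GI50. TGI is the concentration that stops growth completely.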

Experiments:
Assay in all cases: inhibition of tumour cell growth, NCI panel, 384-well format
U251 glioblastoma = system: U251 glioblastoma
MALME-3M melanoma = system: MALME-3M melanoma
NCI-H322M lung = system: NCI-H322M lung
OVCAR-5 ovarian = system: OVCAR-5 ovarian
A549 NSCLC = system: A549 NSCLC
SK-MEL-2 melanoma = system: SK-MEL-2 melanoma
DU-145 prostate = system: DU-145 prostate
HL-60(TB) leukemia = system: HL-60(TB) leukemia
TK-10 renal = system: TK-10 renal
K-562 leukemia = system: K-562 leukemia
OVCAR-4 ovarian = system: OVCAR-4 ovarian
SNB-75 CNS = system: SNB-75 CNS
MOLT-4 leukemia = system: MOLT-4 leukemia
NCI-H460 NSCLC = system: NCI-H460 NSCLC
RPMI-8226 leukemia = system: RPMI-8226 leukemia
RXF 393 renal = system: RXF 393 renal
SK-MEL-5 melanoma = system: SK-MEL-5 melanoma
NCI-H23 lung = system: NCI-H23 lung
HCC-2998 colon = system: HCC-2998 colon
EKVX NSCLC = system: EKVX NSCLC
COLO 205 colon = system: COLO 205 colon
UO-31 renal = system: UO-31 renal
NCI-H226 lung = system: NCI-H226 lung
786-0 renal = system: 786-0 renal
SNB-19 CNS = system: SNB-19 CNS
IGROV1 ovarian = system: IGROV1 ovarian
LOX IMVI melanoma = system: LOX IMVI melanoma
M14 melanoma = system: M14 melanoma
MCF7 breast = system: MCF7 breast
T-47D breast = system: T-47D breast
ACHN renal = system: ACHN renal
SK-OV-3 ovarian = system: SK-OV-3 ovarian
CCRF-CEM leukemia = system: CCRF-CEM leukemia
HT29 colon = system: HT29 colon
SF-268 CNS = system: SF-268 CNS
SN12C renal = system: SN12C renal
CAKI-1 renal = system: CAKI-1 renal
HCT-15 colon = system: HCT-15 colon
HOP-92 NSCLC = system: HOP-92 NSCLC
MDA-MB-435 melanoma = system: MDA-MB-435 melanoma
HOP-62 NSCLC = system: HOP-62 NSCLC
UACC-257 melanoma = system: UACC-257 melanoma
MDA-MB-231 breast = system: MDA-MB-231 breast
NCI/ADR-RES ovarian = system: NCI/ADR-RES ovarian
HCT-116 colon = system: HCT-116 colon
OVCAR-3 ovarian = system: OVCAR-3 ovarian
NCI-H522 lung = system: NCI-H522 lung

Work on `Cc1cc(Nc2cc(N)ncn2)c(=O)n2c1C(=O)NC21CCCCC1` yielded a GI50 (U251 glioblastoma) greater than 100 µM, a TGI (U251 glioblastoma) greater than 100 µM and a GI50 (MALME-3M melanoma) greater than 100 µM. For the same molecule, the TGI (MALME-3M melanoma) was greater than 100 µM, the GI50 (NCI-H322M lung) was greater than 100 µM and the TGI (NCI-H322M lung) was greater than 100 µM. The GI50 (OVCAR-5 ovarian) was greater than 100 µM, the TGI (OVCAR-5 ovarian) was greater than 100 µM and the GI50 (A549 NSCLC) was greater than 100 µM. The TGI (A549 NSCLC) was greater than 100 µM, the GI50 (SK-MEL-2 melanoma) was greater than 100 µM and the TGI (SK-MEL-2 melanoma) was greater than 100 µM. It also gave a GI50 (DU-145 prostate) greater than 100 µM, a TGI (DU-145 prostate) greater than 100 µM and a GI50 (HL-60(TB) leukemia) greater than 100 µM. It also gave a TGI (HL-60(TB) leukemia) greater than 100 µM, a GI50 (TK-10 renal) greater than 100 µM and a TGI (TK-10 renal) greater than 100 µM. It also gave a GI50 (K-562 leukemia) greater than 100 µM, a TGI (K-562 leukemia) greater than 100 µM and a GI50 (OVCAR-4 ovarian) greater than 100 µM. The TGI (OVCAR-4 ovarian) was greater than 100 µM, the GI50 (SNB-75 CNS) was greater than 100 µM and the TGI (SNB-75 CNS) was greater than 100 µM. It also gave a GI50 (MOLT-4 leukemia) greater than 100 µM, a TGI (MOLT-4 leukemia) greater than 100 µM and a GI50 (NCI-H460 NSCLC) greater than 100 µM. It also gave a TGI (NCI-H460 NSCLC) greater than 100 µM, a GI50 (RPMI-8226 leukemia) greater than 62.6 µM and a TGI (RPMI-8226 leukemia) greater than 100 µM. It also gave a GI50 (RXF 393 renal) greater than 100 µM, a TGI (RXF 393 renal) greater than 100 µM and a GI50 (SK-MEL-5 melanoma) greater than 100 µM. For the same molecule, the TGI (SK-MEL-5 melanoma) was greater than 100 µM, the GI50 (NCI-H23 lung) was greater than 100 µM and the TGI (NCI-H23 lung) was greater than 100 µM. It also gave a GI50 (HCC-2998 colon) greater than 100 µM, a TGI (HCC-2998 colon) greater than 100 µM and a GI50 (EKVX NSCLC) greater than 100 µM. The TGI (EKVX NSCLC) was greater than 100 µM, the GI50 (COLO 205 colon) was greater than 100 µM and the TGI (COLO 205 colon) was greater than 100 µM. For the same molecule, the GI50 (UO-31 renal) was greater than 100 µM, the TGI (UO-31 renal) was greater than 100 µM and the GI50 (NCI-H226 lung) was greater than 100 µM. It also gave a TGI (NCI-H226 lung) greater than 100 µM, a GI50 ([…]-0 renal) greater than 100 µM and a TGI (786-0 renal) greater than 100 µM. The GI50 (SNB-19 CNS) was greater than 100 µM, the TGI (SNB-19 CNS) was greater than 100 µM and the GI50 (IGROV1 ovarian) was greater than 100 µM. For the same molecule, the TGI (IGROV1 ovarian) was greater than 100 µM, the GI50 (LOX IMVI melanoma) was greater than 100 µM and the TGI (LOX IMVI melanoma) was greater than 100 µM. For the same molecule, the GI50 (M14 melanoma) was greater than 100 µM, the TGI (M14 melanoma) was greater than 100 µM and the GI50 (MCF7 breast) was greater than 100 µM. The TGI (MCF7 breast) was greater than 100 µM, the GI50 (T-47D breast) was greater than 100 µM and the TGI (T-47D breast) was greater than 100 µM. It also gave a GI50 (ACHN renal) greater than 100 µM, a TGI (ACHN renal) greater than 100 µM and a GI50 (SK-OV-3 ovarian) greater than 100 µM. The TGI (SK-OV-3 ovarian) was greater than 100 µM, the GI50 (CCRF-CEM leukemia) was greater than 100 µM and the TGI (CCRF-CEM leukemia) was greater than 100 µM. It also gave a GI50 (HT29 colon) greater than 100 µM, a TGI (HT29 colon) greater than 100 µM and a GI50 (SF-268 CNS) greater than 100 µM. It also gave a TGI (SF-268 CNS) greater than 100 µM, a GI50 (SN12C renal) greater than 100 µM and a TGI (SN12C renal) greater than 100 µM. It also gave a GI50 (CAKI-1 renal) greater than 100 µM, a TGI (CAKI-1 renal) greater than 100 µM and a GI50 (HCT-15 colon) greater than 100 µM. It also gave a TGI (HCT-15 colon) greater than 100 µM, a GI50 (HOP-92 NSCLC) greater than 23.2 µM and a TGI (HOP-92 NSCLC) greater than 100 µM. It also gave a GI50 (MDA-MB-435 melanoma) greater than 100 µM, a TGI (MDA-MB-435 melanoma) greater than 100 µM and a GI50 (HOP-62 NSCLC) greater than 100 µM. For the same molecule, the TGI (HOP-62 NSCLC) was greater than 100 µM, the GI50 (UACC-257 melanoma) was greater than 100 µM and the TGI (UACC-257 melanoma) was greater than 100 µM. The GI50 (MDA-MB-231 breast) was greater than 100 µM, the TGI (MDA-MB-231 breast) was greater than 100 µM and the GI50 (NCI/ADR-RES ovarian) was greater than 100 µM. For the same molecule, the TGI (NCI/ADR-RES ovarian) was greater than 100 µM, the GI50 (HCT-116 colon) was greater than 100 µM and the TGI (HCT-116 colon) was greater than 100 µM. The GI50 (OVCAR-3 ovarian) was greater than 100 µM, the TGI (OVCAR-3 ovarian) was greater than 100 µM and the GI50 (NCI-H522 lung) was greater than 100 µM. For the same molecule, the TGI (NCI-H522 lung) was greater than 100 µM.
